Test results reported in ChEMBL document CHEMBL4177635, “Discovery and structure-activity-relationship study of novel conformationally restricted indane analogues for mutant isocitric dehydrogenase 1 (IDH1) inhibitors” (Bioorg Med Chem Lett, 2017).

Tests used:
[1] = target: Isocitrate dehydrogenase [NADP] cytoplasmic (Homo sapiens, UniProt O75874, R132H); assay: Inhibition of IDH1 R132H mutant (unknown origin) using alpha-ketoglutarate as substrate after 60 mins by resazurin dye based fluorescence assay
Isocitrate dehydrogenase [NADP] cytoplasmic (Homo sapiens, UniProt O75874, R132H), sequence (O75874 2-414 R132H limits assumed): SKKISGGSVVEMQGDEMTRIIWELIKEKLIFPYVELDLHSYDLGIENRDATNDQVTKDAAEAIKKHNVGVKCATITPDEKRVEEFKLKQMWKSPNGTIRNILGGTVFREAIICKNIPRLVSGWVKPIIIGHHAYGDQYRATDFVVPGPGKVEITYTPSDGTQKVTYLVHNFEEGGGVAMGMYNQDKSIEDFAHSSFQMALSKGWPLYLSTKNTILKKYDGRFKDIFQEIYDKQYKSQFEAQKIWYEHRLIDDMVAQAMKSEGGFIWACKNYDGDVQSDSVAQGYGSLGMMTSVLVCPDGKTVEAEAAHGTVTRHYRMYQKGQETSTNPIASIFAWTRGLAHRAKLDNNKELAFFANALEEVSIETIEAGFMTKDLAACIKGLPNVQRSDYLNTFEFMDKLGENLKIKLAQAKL

[2] = Intrinsic clearance in rat liver microsomes assessed per g protein at 1 uM by LC-MS/MS analysis; assay type: ADME, microsome
[3] = Intrinsic clearance in mouse liver microsomes assessed per g protein at 1 uM by LC-MS/MS analysis; assay type: ADME, microsome
[4] = target: Isocitrate dehydrogenase [NADP] cytoplasmic (Homo sapiens, UniProt O75874, R132C); assay: Inhibition of IDH1 R132C mutant in human HT1080 cells assessed as reduction in 2-hydroxyglutarate production after 48 hrs by LC-MS/MS analysis; assay type: cell-based
Isocitrate dehydrogenase [NADP] cytoplasmic (Homo sapiens, UniProt O75874, R132C), sequence (O75874 2-414 R132C limits assumed): as the sequence (O75874 2-414 R132H limits assumed) above, with H131C counted along it

Mus musculus [5] = assay: AUC in ICR mouse at 1 mg/kg, iv by HPLC-MS analysis; assay type: ADME, organism-based; details: in vivo
[6] = target: Isocitrate dehydrogenase [NADP], mitochondrial (Homo sapiens, UniProt P48735, R140Q); assay: Inhibition of IDH2 R140Q mutant (unknown origin) using alpha-ketoglutarate as substrate pretreated for 60 mins followed by substrate addition measured after 60 mins by resazurin dye based fluorescence assay
Isocitrate dehydrogenase [NADP], mitochondrial, sequence (P48735 40-452 R140Q limits assumed): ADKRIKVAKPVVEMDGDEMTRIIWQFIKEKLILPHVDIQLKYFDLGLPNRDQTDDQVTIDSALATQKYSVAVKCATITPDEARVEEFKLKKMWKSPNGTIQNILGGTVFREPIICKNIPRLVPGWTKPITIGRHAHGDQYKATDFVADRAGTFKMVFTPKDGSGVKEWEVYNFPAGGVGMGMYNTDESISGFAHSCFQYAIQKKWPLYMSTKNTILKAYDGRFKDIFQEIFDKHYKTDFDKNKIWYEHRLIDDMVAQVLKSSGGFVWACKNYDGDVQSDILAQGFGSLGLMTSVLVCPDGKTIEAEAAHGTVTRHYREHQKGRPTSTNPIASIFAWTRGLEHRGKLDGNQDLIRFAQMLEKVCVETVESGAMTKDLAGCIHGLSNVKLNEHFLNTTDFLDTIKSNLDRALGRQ

[7] = Clearance in ICR mouse at 1 mg/kg, iv by HPLC-MS analysis; assay type: ADME, organism-based; details: in vivo
Homo sapiens [8] = organism: Homo sapiens; assay: Selectivity ratio of IC50 for IDH1 (unknown origin) to IC50 for […] (unknown origin)
Homo sapiens [9] = organism: Homo sapiens; assay: Selectivity ratio of IC50 for IDH2 R140Q mutant (unknown origin) to IC50 for IDH2 R140Q mutant (unknown origin)
Mus musculus [10] = assay: Oral bioavailability in ICR mouse at 5 mg/kg by HPLC-MS analysis; assay type: ADME, organism-based; details: in vivo
[11] = Volume of distribution at steady state in ICR mouse at 1 mg/kg, iv or 5 mg/kg, po by HPLC-MS analysis; assay type: ADME, organism-based; details: in vivo, read-out: Vdss
[12] = target: Isocitrate dehydrogenase [NADP] cytoplasmic (Homo sapiens, UniProt O75874); assay: Inhibition of IDH1 (unknown origin) using isocitrate as substrate after 60 mins by resazurin dye based fluorescence assay
Isocitrate dehydrogenase [NADP] cytoplasmic (Homo sapiens, UniProt O75874), sequence (O75874 whole entry): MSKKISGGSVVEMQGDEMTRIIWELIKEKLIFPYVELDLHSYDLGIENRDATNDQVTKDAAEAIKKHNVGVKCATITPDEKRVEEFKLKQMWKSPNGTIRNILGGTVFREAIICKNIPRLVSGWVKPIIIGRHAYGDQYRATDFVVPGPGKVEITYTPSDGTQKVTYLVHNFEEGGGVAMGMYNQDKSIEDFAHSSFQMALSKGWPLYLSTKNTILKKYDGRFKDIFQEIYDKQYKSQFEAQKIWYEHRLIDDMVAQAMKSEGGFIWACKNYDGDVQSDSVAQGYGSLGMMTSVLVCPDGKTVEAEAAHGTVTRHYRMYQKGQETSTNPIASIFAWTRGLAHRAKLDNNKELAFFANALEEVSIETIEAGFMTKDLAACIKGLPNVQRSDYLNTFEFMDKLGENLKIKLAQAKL

Mus musculus [13] = assay: AUC in ICR mouse at 5 mg/kg, po by HPLC-MS analysis; assay type: ADME, organism-based; details: in vivo

Row | IC50 [1] [nM] | IC50 [4] [nM] | further results | Compound
1 | 172 | – | – | N#Cc1ccnc(N2C(=O)CC[C@H]2C(=O)N(c2cc(F)cc(Cl)c2)[C@@]2(C(=O)NC3CC(F)(F)C3)CCc3ccccc32)c1
2 | 85 | 25 | CLH [2]: 3.7 mL/min; CLH [3]: 54.1 mL/min | N#Cc1ccnc(N2C(=O)CC[C@H]2C(=O)N(c2cccc(F)c2)[C@@]2(C(=O)NC3CC(F)(F)C3)CCc3ccccc32)c1
3 | 67 | 21 | – | N#Cc1ccnc(N2C(=O)CC[C@H]2C(=O)N(c2cccc(F)c2)[C@@]2(C(=O)NC3CC(F)(F)C3)CCc3c(Cl)cccc32)c1
4 | 260 | – | – | N#Cc1ccnc(N2C(=O)CC[C@H]2C(=O)N(c2ccccc2)[C@@]2(C(=O)NC3CC(F)(F)C3)CCc3ccccc32)c1
5 | > 1000 | – | – | N#Cc1ccnc(N2C(=O)CC[C@H]2C(=O)N(c2cccc(F)c2)[C@@]2(C(=O)NC3CCOCC3)CCc3ccccc32)c1
6 | 40 | 308 | – | N#Cc1ccnc(N2C(=O)OC[C@H]2C(=O)N(c2cc(F)cc(F)c2)[C@@]2(C(=O)NC3CC(F)(F)C3)CCc3ccccc32)n1
7 | 58 | 19 | – | N#Cc1ccnc(N2C(=O)OC[C@H]2C(=O)N(c2cccc(F)c2)[C@@]2(C(=O)NC3CC(F)(F)C3)CCc3ccccc32)c1
8 | 138 | – | – | N#Cc1ccnc(N2C(=O)CC[C@H]2C(=O)N(c2cccc(F)c2)[C@@]2(C(=O)NC3CC(F)(F)C3)CCc3ccc(F)cc32)c1
9 | 2960 | – | – | CS(=O)(=O)c1ccnc(N2C(=O)CC[C@H]2C(=O)N(c2cc(F)cc(F)c2)[C@@]2(C(=O)NC3CC(F)(F)C3)CCc3ccccc32)c1
10 | 128 | – | – | O=C1CC[C@@H](C(=O)N(c2cc(F)cc(F)c2)[C@@]2(C(=O)NC3CC(F)(F)C3)CCc3ccccc32)N1c1cnccn1
11 | > 10000 | – | – | COc1ccnc(N2C(=O)CC[C@H]2C(=O)N(c2cc(F)cc(F)c2)[C@@]2(C(=O)NC3CC(F)(F)C3)CCc3ccccc32)c1
12 | 54 | 8.9 | – | N#Cc1ccnc(N2C(=O)OC[C@H]2C(=O)N(c2cc(F)cc(F)c2)[C@@]2(C(=O)NC3CC(F)(F)C3)CCc3ccccc32)c1
13 | 22 | 42 | – | N#Cc1ccnc(N2C(=O)CC[C@H]2C(=O)N(c2cccc(F)c2)[C@@]2(C(=O)NC3CC(F)(F)C3)CCc3cccc(Cl)c32)n1
14 | 186 | – | – | N#Cc1ccnc(N2C(=O)CC[C@H]2C(=O)N(c2ccc(Cl)c(F)c2)[C@@]2(C(=O)NC3CC(F)(F)C3)CCc3ccccc32)c1
15 | 37 | < 10 | CLH [2]: 1145 mL/min; CLH [3]: 2359 mL/min | N#Cc1ccnc(N2C(=O)CC[C@H]2C(=O)N(c2cccc(F)c2)[C@@]2(C(=O)NC3CCCCC3)CCc3ccccc32)c1
16 | 108 | – | – | N#Cc1ccnc(N2C(=O)CC[C@H]2C(=O)N(c2cccc(F)c2)[C@@]2(C(=O)NC3CC(F)(F)C3)CCc3cc(F)ccc32)c1
17 | > 10000 | – | – | N#Cc1ccnc(N2C(=O)CC[C@@H]2C(=O)N(c2cccc(F)c2)[C@@]2(C(=O)NC3CC(F)(F)C3)CCc3ccccc32)c1
18 | 255 | – | – | N#Cc1ccnc(N2C(=O)CC[C@H]2C(=O)N(c2cccc(Cl)c2)[C@@]2(C(=O)NC3CC(F)(F)C3)CCc3ccccc32)c1
19 | 275 | – | – | N#Cc1ccnc(N2C(=O)CC[C@H]2C(=O)N(c2cncc(F)c2)[C@@]2(C(=O)NC3CC(F)(F)C3)CCCc3ccccc32)c1
20 | 635 | – | – | N#Cc1ccnc(N2CCC[C@H]2C(=O)N(c2cccc(F)c2)[C@@]2(C(=O)NC3CC(F)(F)C3)CCc3ccccc32)c1

Row | IC50 [1] [nM] | IC50 [4] [nM] | further results | Compound
21 | 68 | 27 | – | N#Cc1ccnc(N2C(=O)CC[C@H]2C(=O)N(c2cccc(F)c2)[C@@]2(C(=O)NC3CC(F)(F)C3)CCc3c(F)cccc32)c1
22 | 2610 | – | – | N#Cc1cccc(N2C(=O)CC[C@H]2C(=O)N(c2cc(F)cc(F)c2)[C@@]2(C(=O)NC3CC(F)(F)C3)CCc3ccccc32)c1
23 | 80 | 15 | CLH [2]: 24 mL/min; CLH [3]: 567 mL/min | N#Cc1ccnc(N2C(=O)CC[C@H]2C(=O)N(c2cccc(F)c2)[C@@]2(C(=O)NCC3CCC(F)(F)CC3)CCc3ccccc32)c1
24 | 266 | – | – | N#Cc1ccnc(N2C(=O)CC[C@H]2C(=O)N(c2cccc(F)c2)[C@@]2(C(=O)NCC3CC3)CCc3ccccc32)c1
25 | > 1000 | – | – | N#Cc1ccnc(N2C(=O)CC[C@H]2C(=O)N(c2cccc(F)c2)[C@@]2(C(=O)Nc3ccccc3)CCc3ccccc32)c1
26 | 95 | – | – | N#Cc1ccnc(N2C(=O)CC[C@H]2C(=O)N(c2ccc(F)c(F)c2)[C@@]2(C(=O)NC3CC(F)(F)C3)CCc3ccccc32)c1
27 | > 10000 | – | – | O=C1CC[C@@H](C(=O)N(c2cc(F)cc(F)c2)[C@@]2(C(=O)NC3CC(F)(F)C3)CCc3ccccc32)N1c1ccccn1
28 | 94 | 21 | – | N#Cc1ccnc(N2C(=O)CC[C@H]2C(=O)N(c2cncc(F)c2)[C@@]2(C(=O)NC3CC(F)(F)C3)CCc3ccccc32)c1
29 | 180 | – | – | N#Cc1ccnc(N2C(=O)CC[C@H]2C(=O)N(c2cc(F)cc(F)c2)[C@@]2(C(=O)NC3CC(F)(F)C3)CCc3cccc(Cl)c32)c1
30 | 22 | 14.9 | – | N#Cc1ccnc(N2C(=O)CC[C@H]2C(=O)N(c2cc(F)cc(F)c2)[C@@]2(C(=O)NC3CC(F)(F)C3)CCc3ccccc32)n1
31 | 51 | 52 | – | N#Cc1ccnc(N2C(=O)CC[C@H]2C(=O)N(c2cccc(F)c2)[C@@]2(C(=O)NC3CC(F)(F)C3)CCc3cccc(F)c32)c1
32 | 338 | – | – | N#Cc1ccnc(N2C(=O)CC[C@H]2C(=O)N(c2cc(F)ccc2F)[C@@]2(C(=O)NC3CC(F)(F)C3)CCc3ccccc32)c1
33 | 53 | 14 | – | N#Cc1ccnc(N2C(=O)CC[C@H]2C(=O)N(c2cc(F)cc(F)c2)[C@@]2(C(=O)NC3CC(F)(F)C3)CCc3c(Cl)cccc32)c1
34 | 45 | 5 | AUC (Mus musculus [5]): 1984 ng·h/mL; IC50 [6]: > 100 nM; clearance [7]: 8.33 mL/min/kg; Ratio IC50 (Homo sapiens [8]): 79; Ratio IC50 (Homo sapiens [9]): > 2200; F (Mus musculus [10]): 87%; Vd [11]: 1 L; IC50 [12]: 3560 nM; AUC (Mus musculus [13]): 3620 ng·h/mL | N#Cc1ccnc(N2C(=O)CC[C@H]2C(=O)N(c2cc(F)cc(F)c2)[C@@]2(C(=O)NC3CC(F)(F)C3)CCc3ccccc32)c1
35 | 270 | – | – | N#Cc1ccnc(N2C(=O)CC[C@H]2C(=O)N(c2cncc(F)c2)[C@@]2(C(=O)NC3CC(F)(F)C3)Cc3ccccc32)c1
36 | 5.6 | 29 | – | N#Cc1ccnc(N2C(=O)OC[C@H]2C(=O)N(c2cccc(F)c2)[C@@]2(C(=O)NC3CC(F)(F)C3)CCc3cccc(Cl)c32)n1
37 | 148 | – | – | N#Cc1ccnc(N2C(=O)CC[C@H]2C(=O)N(c2cccc(F)c2F)[C@@]2(C(=O)NC3CC(F)(F)C3)CCc3ccccc32)c1
38 | 49 | 7.5 | AUC (Mus musculus [5]): 834 ng·h/mL; IC50 [6]: > 100 nM; clearance [7]: 20 mL/min/kg; Ratio IC50 (Homo sapiens [8]): 36; Ratio IC50 (Homo sapiens [9]): > 2040; F (Mus musculus [10]): 38%; Vd [11]: 1.9 L; IC50 [12]: 1780 nM; AUC (Mus musculus [13]): 3780 ng·h/mL | N#Cc1ccnc(N2C(=O)CC[C@H]2C(=O)N(c2cccc(F)c2)[C@@]2(C(=O)NC3CC(F)(F)C3)CCc3cc(Cl)ccc32)c1
39 | 42 | 9 | – | N#Cc1ccnc(N2C(=O)OC[C@H]2C(=O)N(c2cccc(F)c2)[C@@]2(C(=O)NC3CC(F)(F)C3)CCc3cccc(Cl)c32)c1
